ChEMBL document CHEMBL5523739, “NN1213 - A Potent, Long-Acting, and Selective Analog of Human Amylin” (J Med Chem, 2024)
Values after ≈ are worked out from the molar mass of the structure shown. Bridge positions count the residues as written; N and C are the ends. Peptide text beside a SMILES is read from it.

Experiments:
[1] = biological target: T1, Calcitonin receptor (Homo sapiens, UniProt P30988); test: Displacement of 125I-Calcitonin from human CTR expressed in Baby hamster kidney cell membrane incubated for 120 mins by SPA method; type: cell membranes
T1 sequence (P30988 whole entry): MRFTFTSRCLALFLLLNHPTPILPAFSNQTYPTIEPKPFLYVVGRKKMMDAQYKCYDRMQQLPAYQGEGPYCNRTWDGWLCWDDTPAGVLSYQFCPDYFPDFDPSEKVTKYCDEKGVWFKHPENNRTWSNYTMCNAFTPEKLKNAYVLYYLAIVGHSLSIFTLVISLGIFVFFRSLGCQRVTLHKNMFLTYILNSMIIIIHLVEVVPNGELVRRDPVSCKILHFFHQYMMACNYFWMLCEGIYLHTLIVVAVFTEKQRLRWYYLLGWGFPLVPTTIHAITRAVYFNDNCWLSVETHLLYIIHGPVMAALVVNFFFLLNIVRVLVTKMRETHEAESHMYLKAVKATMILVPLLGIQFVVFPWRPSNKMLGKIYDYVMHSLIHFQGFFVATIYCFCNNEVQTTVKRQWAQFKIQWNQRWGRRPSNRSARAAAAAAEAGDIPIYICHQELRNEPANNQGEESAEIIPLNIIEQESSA

[2] = Solubility of compound at pH 5 incubated overnight by UPLC analysis; type: physicochemical; details: buffer
[3] = Solubility of compound at pH 6.5 incubated overnight by UPLC analysis; type: physicochemical; details: buffer
[4] = Solubility of compound at pH 4 incubated overnight by UPLC analysis; type: physicochemical; details: buffer
[5] = biological target: T2, Amylin receptor AMY3; CALCR/RAMP3 (Rattus norvegicus, UniProt P32214+Q9JJ73); test: Agonist activity at rat AMY3R complex of CTR/RAMP3 expressed in Baby hamster kidney cells incubated for 3 hrs by cAMP assay; type: functional, cell-based, Baby hamster kidney cell
T2 sequence (P32214 whole entry): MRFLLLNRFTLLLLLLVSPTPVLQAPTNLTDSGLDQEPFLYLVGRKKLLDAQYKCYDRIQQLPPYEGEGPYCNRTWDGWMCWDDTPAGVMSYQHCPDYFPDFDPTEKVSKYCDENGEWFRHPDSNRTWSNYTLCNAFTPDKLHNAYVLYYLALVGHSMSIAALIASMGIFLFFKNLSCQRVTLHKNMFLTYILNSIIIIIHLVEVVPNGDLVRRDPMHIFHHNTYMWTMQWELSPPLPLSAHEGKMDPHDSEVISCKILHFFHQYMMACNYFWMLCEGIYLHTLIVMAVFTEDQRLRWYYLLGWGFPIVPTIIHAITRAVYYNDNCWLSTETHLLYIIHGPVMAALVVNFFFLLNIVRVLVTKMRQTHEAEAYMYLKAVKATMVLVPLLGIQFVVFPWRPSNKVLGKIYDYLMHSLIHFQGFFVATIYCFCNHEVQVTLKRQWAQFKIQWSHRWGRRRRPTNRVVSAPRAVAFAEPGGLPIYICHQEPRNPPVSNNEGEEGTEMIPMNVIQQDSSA
T2 sequence (Q9JJ73 whole entry): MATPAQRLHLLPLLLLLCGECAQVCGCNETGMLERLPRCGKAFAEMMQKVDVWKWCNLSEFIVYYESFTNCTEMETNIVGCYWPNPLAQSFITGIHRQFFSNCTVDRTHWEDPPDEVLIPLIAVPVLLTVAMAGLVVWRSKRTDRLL

[6] = Solubility of compound at pH 7 incubated overnight by UPLC analysis; type: physicochemical; details: buffer
[7] = Stability against amyloid fibril formation at pH 7.5 assessed as compound recovery at 1 uM measured after 45 hrs by ThT assay; type: physicochemical; details: pH 7.5, 45 h
[8] = Solubility of compound at pH 7.5 incubated overnight by UPLC analysis; type: physicochemical; details: buffer
[9] = organism: Homo sapiens; test: Selectivity ratio of EC50 for human CTR expressed in Baby hamster kidney cells to EC50 for human AMY3R complex of CTR/RAMP3 expressed in Baby hamster kidney cells; type: cell-based
[10] = organism: Rattus norvegicus; test: Selectivity ratio of EC50 for rat CTR expressed in Baby hamster kidney cells to EC50 for rat AMY3R complex of CTR/RAMP3 expressed in Baby hamster kidney cells; type: cell-based
[11] = biological target: T1, Calcitonin receptor; test: Agonist activity at human CTR expressed in Baby hamster kidney cells incubated for 3 hrs followed by medium replacement without compound measured after 30 mins by luciferase reporter assay; type: functional, cell-based, Baby hamster kidney cell
[12] = biological target: T3, Amylin receptor AMY3; CALCR/RAMP3 (Homo sapiens, UniProt O60896+P30988); test: Agonist activity at human AMY3R complex of CTR/RAMP3 expressed in Baby hamster kidney cells incubated for 3 hrs followed by medium replacement without compound measured after 30 mins by luciferase reporter assay; type: functional, cell-based, Baby hamster kidney cell
T3 sequence (P30988 whole entry): T1 sequence (P30988 whole entry)
T3 sequence (O60896 whole entry): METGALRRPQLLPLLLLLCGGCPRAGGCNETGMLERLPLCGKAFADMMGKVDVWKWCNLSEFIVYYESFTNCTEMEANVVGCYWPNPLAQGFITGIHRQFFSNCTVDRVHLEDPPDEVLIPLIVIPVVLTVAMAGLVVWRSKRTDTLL

[13] = Solubility of compound at pH 6 incubated overnight by UPLC analysis; type: physicochemical; details: buffer
[14] = Stability against amyloid fibril formation at pH 7.5 assessed as lag time at 1 uM measured after 45 hrs by ThT assay; type: physicochemical; details: pH 7.5, 45 h
[15] = Solubility of compound at pH 3 incubated overnight by UPLC analysis; type: physicochemical; details: buffer
[16] = Solubility of compound at pH 8 incubated overnight by UPLC analysis; type: physicochemical; details: buffer
[17] = biological target: T4, Calcitonin receptor (Rattus norvegicus, UniProt P32214); test: Agonist activity at rat CTR expressed in Baby hamster kidney cells incubated for 3 hrs by cAMP assay; type: functional, cell-based, Baby hamster kidney cell
T4 sequence (P32214 whole entry): T2 sequence (P32214 whole entry)

[18] = biological target: T3, Amylin receptor AMY3; CALCR/RAMP3; test: Displacement of 125I-rat amylin from human AMY3R complex of CTR/RAMP3 expressed in Baby hamster kidney cell membrane incubated for 120 mins by SPA method; type: cell membranes
[19] = biological target: T4, Calcitonin receptor; test: Displacement of 125I-Calcitonin from rat CTR expressed in Baby hamster kidney cell membrane incubated for 120 mins by SPA method; type: cell membranes
[20] = biological target: T2, Amylin receptor AMY3; CALCR/RAMP3; test: Displacement of 125I-rat amylin from rat AMY3R complex of CTR/RAMP3 expressed in Baby hamster kidney cell membrane incubated for 120 mins by SPA method; type: cell membranes

With `CC(C)C[C@H](NC(=O)[C@H](CCCNC(=N)N)NC(=O)[C@H](CCC(N)=O)NC(=O)[C@@H](NC(=O)[C@H](C)NC(=O)[C@@H]1CSSC[C@H](NC(=O)[C@@H](N)CCCCN)C(=O)N[C@@H](CC(N)=O)C(=O)N[C@@H]([C@@H](C)O)C(=O)N[C@@H](C)C(=O)N[C@@H]([C@@H](C)O)C(=O)N1)[C@@H](C)O)C(=O)N[C@@H](C)C(=O)N[C@@H](CC(=O)O)C(=O)N[C@@H](Cc1ccccc1)C(=O)N[C@@H](CC(C)C)C(=O)N[C@@H](CCCNC(=N)N)C(=O)N[C@@H](Cc1c[nH]cn1)C(=O)N[C@@H](CO)C(=O)N[C@@H](CO)C(=O)N[C@@H](CCC(N)=O)C(=O)N[C@@H](CC(N)=O)C(=O)N[C@@H](Cc1ccccc1)C(=O)NCC(=O)N[C@@H](C)C(=O)N1CCC[C@H]1C(=O)N[C@@H](CC(C)C)C(=O)N[C@@H](CO)C(=O)N[C@@H](CO)C(=O)N[C@H](C(=O)N1CCC[C@H]1C(=O)N[C@H](C(=O)NCC(=O)N[C@@H](CO)C(=O)N[C@@H](CC(=O)O)C(=O)N[C@H](C(=O)N[C@@H](Cc1ccc(O)cc1)C(N)=O)[C@@H](C)O)C(C)C)[C@@H](C)O` (H-KCNTATCATQRLADFLRHSSQNFGAPLSSTPVGSDTY-NH2; disulfide 2-7) the solubility [2] was ≥ 200 µM, the solubility [3] was ≥ 200 µM and the solubility [4] was ≥ 200 µM. For the same molecule, the EC50 [5] was 0.463 nM, the solubility [6] was ≥ 200 µM and the Drug recovery [7] was 100%. The solubility [8] was ≥ 200 µM, the Ratio EC50 [9] was 3.9 and the Ratio EC50 [10] was 31. The EC50 [11] was 0.697 nM, the EC50 [12] was 0.18 nM and the solubility [13] was ≥ 200 µM. For the same molecule, the Time [14] was > 45 h, the solubility [15] was ≥ 200 µM and the solubility [16] was ≥ 200 µM. It also gave an EC50 [17] of 14.3 nM.

For `CC[C@H](C)[C@H](NC(=O)[C@H](C)NC(=O)CNC(=O)[C@H](Cc1ccccc1)NC(=O)[C@H](CC(N)=O)NC(=O)[C@@H]1CCCN1C(=O)[C@H](CO)NC(=O)[C@H](CO)NC(=O)[C@H](Cc1c[nH]cn1)NC(=O)[C@H](CCCNC(=N)N)NC(=O)[C@H](CC(C)C)NC(=O)[C@H](Cc1ccccc1)NC(=O)[C@H](CC(=O)O)NC(=O)[C@H](C)NC(=O)[C@H](CC(C)C)NC(=O)[C@H](CCCNC(=N)N)NC(=O)[C@H](CCC(N)=O)NC(=O)[C@@H](NC(=O)[C@H](C)NC(=O)[C@@H]1CSSC[C@H](NC(=O)[C@@H](N)CCCCN)C(=O)N[C@@H](CC(N)=O)C(=O)N[C@@H]([C@@H](C)O)C(=O)N[C@@H](C)C(=O)N[C@@H]([C@@H](C)O)C(=O)N1)[C@@H](C)O)C(=O)N1CCC[C@H]1C(=O)N[C@@H](CO)C(=O)N[C@@H](CO)C(=O)N[C@H](C(=O)N[C@@H](CC(N)=O)C(=O)N[C@H](C(=O)NCC(=O)N[C@@H](CO)C(=O)N[C@@H](CC(=O)O)C(=O)N[C@H](C(=O)N[C@@H](Cc1ccc(O)cc1)C(N)=O)[C@@H](C)O)C(C)C)[C@@H](C)O`, the IC50 [18] was 0.355 nM, the IC50 [1] was 19.5 nM and the solubility [2] was ≥ 200 µM. The solubility [3] was 190 µM (≈ 747 µg/mL), the solubility [4] was ≥ 200 µM and the EC50 [5] was 0.643 nM. The solubility [6] was ≥ 200 µM, the IC50 [19] was 96.9 nM and the Drug recovery [7] was 100%. The solubility [8] was ≥ 200 µM, the EC50 [11] was 2.48 nM and the EC50 [12] was 0.161 nM. For the same molecule, the IC50 [20] was 0.217 nM, the solubility [13] was ≥ 200 µM and the Time [14] was > 45 h. The solubility [15] was ≥ 200 µM, the solubility [16] was ≥ 200 µM and the EC50 [17] was 861 nM.

In the case of `CC(C)C[C@H](NC(=O)[C@H](CCCNC(=N)N)NC(=O)[C@H](CCC(N)=O)NC(=O)[C@@H](NC(=O)[C@H](C)NC(=O)[C@@H]1CSSC[C@H](NC(=O)[C@@H](N)CCCCN)C(=O)N[C@@H](CC(N)=O)C(=O)N[C@@H]([C@@H](C)O)C(=O)N[C@@H](C)C(=O)N[C@@H]([C@@H](C)O)C(=O)N1)[C@@H](C)O)C(=O)N[C@@H](C)C(=O)N[C@@H](CC(=O)O)C(=O)N[C@@H](Cc1ccccc1)C(=O)N[C@@H](CC(C)C)C(=O)N[C@@H](CCCNC(=N)N)C(=O)N[C@@H](Cc1c[nH]cn1)C(=O)N[C@@H](CO)C(=O)N[C@@H](CO)C(=O)N[C@@H](CCC(N)=O)C(=O)N[C@@H](CC(N)=O)C(=O)N[C@@H](Cc1ccccc1)C(=O)NCC(=O)N[C@@H](C)C(=O)N1CCC[C@H]1C(=O)N[C@@H](CC(C)C)C(=O)N[C@@H](CO)C(=O)N[C@@H](CO)C(=O)N[C@H](C(=O)N[C@@H](CC(N)=O)C(=O)N[C@H](C(=O)NCC(=O)N[C@@H](CO)C(=O)N1CCC[C@H]1C(=O)N[C@H](C(=O)N[C@@H](Cc1ccc(O)cc1)C(N)=O)[C@@H](C)O)C(C)C)[C@@H](C)O` (H-KCNTATCATQRLADFLRHSSQNFGAPLSSTNVGSPTY-NH2; disulfide 2-7), the solubility [2] is reported as ≥ 200 µM, the solubility [3] is reported as 75 µM (≈ 296 µg/mL) and the solubility [4] is reported as ≥ 200 µM. The solubility [6] was 7 µM (≈ 27.6 µg/mL), the Drug recovery [7] was 0% and the solubility [8] was 7 µM (≈ 27.6 µg/mL). The Ratio EC50 [9] was 0.9, the EC50 [11] was 1.37 nM and the EC50 [12] was 1.54 nM. For the same molecule, the solubility [13] was ≥ 200 µM, the Time [14] was 0 h and the solubility [15] was ≥ 200 µM. The solubility [16] was 15 µM (≈ 59.1 µg/mL).
